ChEMBL document CHEMBL1134133, “Neutral inhibitors of the serine protease factor Xa” (Bioorg Med Chem Lett, 2001)

Legend:
[1] = target: Coagulation factor X (Homo sapiens) (UniProt P00742); experiment: In vitro inhibition of human coagulation factor X.
[2] = target: Coagulation factor X (Homo sapiens) (UniProt P00742); experiment: Inhibitory activity against serine protease Coagulation factor X at pH 8.2
[3] = target: Urokinase-type plasminogen activator (Homo sapiens) (UniProt P00749); experiment: Inhibitory activity against urokinase-type plasminogen activator (microPa) at pH 8.2
[4] = target: T1, Coagulation factor VII (Homo sapiens) (UniProt P08709); experiment: Inhibitory activity against Coagulation factor VII at pH 8.2
T1 sequence (whole entry): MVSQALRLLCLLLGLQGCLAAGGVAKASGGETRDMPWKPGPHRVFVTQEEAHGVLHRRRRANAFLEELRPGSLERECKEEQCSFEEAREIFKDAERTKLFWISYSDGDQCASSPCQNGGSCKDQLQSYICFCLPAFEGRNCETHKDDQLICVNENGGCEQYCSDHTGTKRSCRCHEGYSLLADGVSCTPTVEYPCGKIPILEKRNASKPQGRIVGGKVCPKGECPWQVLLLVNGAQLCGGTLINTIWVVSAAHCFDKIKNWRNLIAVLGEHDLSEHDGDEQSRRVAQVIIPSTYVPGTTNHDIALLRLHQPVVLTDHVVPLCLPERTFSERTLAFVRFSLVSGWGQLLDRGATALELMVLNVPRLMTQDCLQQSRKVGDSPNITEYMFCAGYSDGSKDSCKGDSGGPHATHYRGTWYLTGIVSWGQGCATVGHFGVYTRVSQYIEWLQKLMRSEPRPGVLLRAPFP

[5] = target: Plasminogen (Homo sapiens) (UniProt P00747); experiment: Inhibitory activity against plasmin at pH 8.2
Chain of Plasminogen (Homo sapiens) (P00747 whole entry, looked up): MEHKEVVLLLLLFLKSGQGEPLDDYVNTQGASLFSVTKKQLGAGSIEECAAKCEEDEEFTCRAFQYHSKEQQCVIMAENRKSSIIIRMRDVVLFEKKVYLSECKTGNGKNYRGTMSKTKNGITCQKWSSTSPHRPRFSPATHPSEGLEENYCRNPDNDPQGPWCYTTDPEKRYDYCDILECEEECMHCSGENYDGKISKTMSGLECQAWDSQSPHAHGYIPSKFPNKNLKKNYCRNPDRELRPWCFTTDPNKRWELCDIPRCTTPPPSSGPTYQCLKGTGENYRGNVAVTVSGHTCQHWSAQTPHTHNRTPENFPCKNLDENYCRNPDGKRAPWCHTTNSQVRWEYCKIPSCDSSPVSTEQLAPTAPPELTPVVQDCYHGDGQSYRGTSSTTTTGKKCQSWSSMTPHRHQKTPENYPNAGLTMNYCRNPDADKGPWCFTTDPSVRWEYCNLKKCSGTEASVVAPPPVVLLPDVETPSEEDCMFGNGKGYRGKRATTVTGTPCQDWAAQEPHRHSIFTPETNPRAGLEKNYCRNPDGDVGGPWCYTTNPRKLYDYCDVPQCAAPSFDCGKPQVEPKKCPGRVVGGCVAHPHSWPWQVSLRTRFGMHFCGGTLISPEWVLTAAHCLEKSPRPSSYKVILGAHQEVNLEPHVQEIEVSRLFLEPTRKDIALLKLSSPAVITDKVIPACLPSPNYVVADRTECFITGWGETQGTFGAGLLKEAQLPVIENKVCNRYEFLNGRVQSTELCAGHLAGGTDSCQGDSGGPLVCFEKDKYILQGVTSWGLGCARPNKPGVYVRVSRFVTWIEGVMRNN

[6] = target: Serine protease 1 (Homo sapiens) (UniProt P07477); experiment: Inhibitory activity against trypsin at pH 8.2
Chain of Serine protease 1 (Homo sapiens) (P07477 whole entry): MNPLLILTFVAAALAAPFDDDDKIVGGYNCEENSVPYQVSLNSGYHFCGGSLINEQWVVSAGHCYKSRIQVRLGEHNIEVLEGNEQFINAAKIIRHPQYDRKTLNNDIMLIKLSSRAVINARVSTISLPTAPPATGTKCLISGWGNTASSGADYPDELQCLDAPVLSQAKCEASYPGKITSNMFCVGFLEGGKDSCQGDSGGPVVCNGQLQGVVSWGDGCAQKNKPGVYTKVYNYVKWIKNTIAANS

[7] = target: Tissue-type plasminogen activator (Homo sapiens) (UniProt P00750); experiment: Inhibitory activity against tissue plasminogen activator (tissue plasminogen activator) at pH 8.2
Chain of Tissue-type plasminogen activator (Homo sapiens) (P00750 36-562 limits assumed): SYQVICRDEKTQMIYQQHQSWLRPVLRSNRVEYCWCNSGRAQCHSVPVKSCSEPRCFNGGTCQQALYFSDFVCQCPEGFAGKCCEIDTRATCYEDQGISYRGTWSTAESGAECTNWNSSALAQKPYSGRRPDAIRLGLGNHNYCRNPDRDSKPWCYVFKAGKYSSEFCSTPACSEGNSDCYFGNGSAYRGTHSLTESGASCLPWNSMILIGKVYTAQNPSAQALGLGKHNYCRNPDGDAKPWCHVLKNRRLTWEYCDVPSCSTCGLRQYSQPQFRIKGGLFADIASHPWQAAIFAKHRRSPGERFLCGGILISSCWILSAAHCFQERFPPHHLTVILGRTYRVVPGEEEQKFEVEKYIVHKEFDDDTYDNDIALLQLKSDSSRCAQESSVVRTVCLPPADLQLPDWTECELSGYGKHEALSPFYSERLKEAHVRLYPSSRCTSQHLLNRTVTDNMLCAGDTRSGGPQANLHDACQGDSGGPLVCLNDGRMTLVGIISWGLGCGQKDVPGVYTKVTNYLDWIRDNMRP

[8] = target: Prothrombin (Homo sapiens) (UniProt P00734); experiment: Inhibitory activity against thrombin at pH 8.2
[9] = target: Vitamin K-dependent protein C (Homo sapiens) (UniProt P04070); experiment: Inhibitory activity against Activated protein C at pH 8.2
Chain of Vitamin K-dependent protein C (Homo sapiens) (P04070 43-197 limits assumed): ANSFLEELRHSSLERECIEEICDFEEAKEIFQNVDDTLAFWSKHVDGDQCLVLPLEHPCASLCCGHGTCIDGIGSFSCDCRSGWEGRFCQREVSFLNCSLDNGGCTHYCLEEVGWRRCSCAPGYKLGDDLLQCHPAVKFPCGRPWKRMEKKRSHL
Chain of Vitamin K-dependent protein C (Homo sapiens) (P04070 212-461 limits assumed): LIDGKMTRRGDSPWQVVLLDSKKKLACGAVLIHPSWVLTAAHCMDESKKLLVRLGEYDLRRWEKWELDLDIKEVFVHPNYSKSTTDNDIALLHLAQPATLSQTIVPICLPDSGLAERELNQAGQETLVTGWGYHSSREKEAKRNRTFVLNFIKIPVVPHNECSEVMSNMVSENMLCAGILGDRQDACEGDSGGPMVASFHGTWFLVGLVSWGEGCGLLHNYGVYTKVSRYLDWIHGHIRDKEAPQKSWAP

[10] = target: Coagulation factor X (Homo sapiens) (UniProt P00742); experiment: Inhibitory activity against serine protease Coagulation factor X at pH 7.4

Chain of Coagulation factor X (Homo sapiens) (P00742 41-179 limits assumed): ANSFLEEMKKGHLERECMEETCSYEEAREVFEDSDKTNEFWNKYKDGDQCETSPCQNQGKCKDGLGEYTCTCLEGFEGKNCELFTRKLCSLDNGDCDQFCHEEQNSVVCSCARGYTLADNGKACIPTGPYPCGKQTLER
Chain of Coagulation factor X (Homo sapiens) (P00742 235-488 limits assumed): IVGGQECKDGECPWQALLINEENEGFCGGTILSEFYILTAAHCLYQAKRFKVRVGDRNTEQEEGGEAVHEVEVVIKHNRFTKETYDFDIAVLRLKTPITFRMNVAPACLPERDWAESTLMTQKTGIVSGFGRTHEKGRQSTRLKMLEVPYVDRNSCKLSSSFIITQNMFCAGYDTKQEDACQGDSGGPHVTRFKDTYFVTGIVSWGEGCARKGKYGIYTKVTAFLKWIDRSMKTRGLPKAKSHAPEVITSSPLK

Compound | Ki' [1] [µM] | also measured
O=C(O)c1ccc(NC(=O)c2ccccc2NC(=O)c2sc3ccccc3c2Cl)cc1 | > 150 | 
O=C(Nc1ccccn1)c1ccccc1NC(=O)c1sc2ccccc2c1Cl | 7.8 | 
Cc1ccc(NC(=O)c2sc3ccccc3c2Cl)c(C(=O)Nc2ccncc2)c1 | 22.1 | 
O=C(Nc1ccc(F)cc1)c1ccccc1NC(=O)c1sc2ccccc2c1Cl | 3.1 | 
Cc1ccc(NC(=O)c2sc3ccccc3c2Cl)c(C(=O)Nc2ccc(N(C)C)cc2)c1 | > 1200 | 
Cc1ccc(NC(=O)c2sc3ccccc3c2Cl)c(C(=O)Nc2ccc(O)cc2)c1 | 97 | 
O=C(O)c1cccc(NC(=O)c2ccccc2NC(=O)c2sc3ccccc3c2Cl)c1 | > 150 | 
O=C(Nc1ccccc1C(=O)N1CCOCC1)c1sc2ccccc2c1Cl | > 150 | 
Cc1ccc(NC(=O)c2cc3cc(O)ccc3s2)c(C(=O)Nc2ccc(F)cc2)c1 | 3.5 | 
COc1ccc(NC(=O)c2cc(C)ccc2NC(=O)c2sc3ccccc3c2Cl)cc1 | 2.1 | 
Cc1ccc(NC(=O)c2sc3ccccc3c2Cl)c(C(=O)Nc2ccc(Cl)cc2)c1 | 0.21 | 
Cc1ccc(NC(=O)c2sc3ccccc3c2Cl)c(C(=O)Nc2ccc(F)cc2)c1 | 0.57 | Ki' [2]: 2.1 µM; Ki' [3]: > 150 µM; Ki' [4]: > 900 µM; Ki' [5]: > 150 µM; Ki' [6]: > 150 µM; Ki' [7]: > 150 µM; Ki' [8]: 125 µM; Ki' [9]: > 150 µM; Ki' [10]: 0.042 µM
Cc1ccc(NC(=O)c2sc3ccccc3c2Cl)c(C(=O)Nc2ccc3c(c2)OCO3)c1 | 17.7 | 
Cc1ccc(NC(=O)c2sc3ccccc3c2Cl)c(C(=O)Nc2ccccc2Cl)c1 | > 1200 | 
Cc1ccc(NC(=O)c2sc3ccccc3c2Cl)c(C(=O)N2CCNCC2)c1 | > 1200 | 
Cc1ccc(NC(=O)c2sc3ccccc3c2Cl)c(C(=O)Nc2ccc(N3CCOCC3)cc2)c1 | 436 | 
Cc1ccc(NC(=O)c2cc3ccc(O)cc3s2)c(C(=O)Nc2ccc(F)cc2)c1 | 10 | 
